From patent US20240043395A1, “COMPOUNDS AND COMPOSITIONS AS MODULATORS OF TLR SIGNALING” (Neuropore Therapies, Inc., priority 2020, published 2024)
“And” between values parts separate entries of the source, which are not always exact repeats. Equal values may be shown once.

Experiments:
Format in all cases: cell-based
human TLR2 [1] = target: T1, human TLR2 (Homo sapiens (Human), UniProt O60603); assay: HEK-Blue hTLR2 antagonism assay (SEAP reporter), agonist Pam3CSK4; details: HEK-Blue hTLR2 cells; Pam3CSK4 (TLR1/2 agonist) at approx. 3×EC50; 18 h; 8-point dilutions
T1 sequence (O60603 21-784): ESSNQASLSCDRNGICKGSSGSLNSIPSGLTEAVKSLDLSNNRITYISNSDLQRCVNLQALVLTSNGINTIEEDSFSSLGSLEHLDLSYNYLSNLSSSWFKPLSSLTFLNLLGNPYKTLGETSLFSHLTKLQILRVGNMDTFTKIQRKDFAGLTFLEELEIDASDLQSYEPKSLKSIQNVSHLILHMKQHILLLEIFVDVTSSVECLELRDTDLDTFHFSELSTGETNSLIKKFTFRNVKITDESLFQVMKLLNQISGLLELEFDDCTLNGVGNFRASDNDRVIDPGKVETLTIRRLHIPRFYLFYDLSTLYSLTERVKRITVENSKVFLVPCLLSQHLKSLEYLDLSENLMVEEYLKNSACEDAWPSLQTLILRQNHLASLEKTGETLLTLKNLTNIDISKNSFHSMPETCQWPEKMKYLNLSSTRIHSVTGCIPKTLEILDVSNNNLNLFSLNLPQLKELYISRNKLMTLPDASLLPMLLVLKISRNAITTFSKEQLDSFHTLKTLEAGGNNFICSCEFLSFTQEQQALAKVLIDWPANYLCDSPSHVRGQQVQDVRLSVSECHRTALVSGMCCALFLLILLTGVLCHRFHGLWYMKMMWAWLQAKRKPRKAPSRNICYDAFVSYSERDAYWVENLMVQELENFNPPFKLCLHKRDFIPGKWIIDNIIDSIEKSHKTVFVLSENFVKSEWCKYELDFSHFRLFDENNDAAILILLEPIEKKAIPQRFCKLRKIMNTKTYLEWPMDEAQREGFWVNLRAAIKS
Procedure: (§1) Synthetic diacylated lipoprotein (Pam2CSK4, TLR2/6 agonist) and synthetic triacylated lipoprotein (Pam3CSK4, TLR1/2 agonist) were obtained from InvivoGen and were dissolved in endotoxin-free water to a concentration 1 mg/mL, vortexed until complete solubilization, and stored in aliquots at −20° C. Prior to addition to cells, an aliquot of the dissolved ligand was vortexed shortly and then was diluted in medium to 25 ng/mL Pam2CSK4 or 1000 ng/mL Pam3CSK4.
(§2) Test compounds were solubilized fresh to 10-20 mM stocks in DMSO and sonicated for 5-10 minutes in a water bath sonicator. Serial dilutions were prepared in DMSO, and then diluted in medium. The final concentration of DMSO used in the assay was 1%.
(§3) HEK-Blue hTLR2 reporter cells (InvivoGen) are HEK-293 cells stably expressing both the human TLR2 gene and a secreted embryonic alkaline phosphatase (SEAP) reporter construct downstream of NFκB promotor sites. HEK-Blue hTLR2 reporters were cultured according to manufacturer's protocol using Dulbecco's Modified Eagle Medium (DMEM; Gibco) containing 1× GlutaMax (Gibco), 10% heat-inactivated Fetal Bovine Serum (Gibco), Pen-Strep (50 U/mL penicillin, 50 μg/mL streptomycin, Gibco), 100 μg/mL Normocin (InvivoGen), and the selective antibiotic, lx HEK-Blue Selection (InvivoGen). Quanti-Blue reagent (InvivoGen) for detection and quantification of secreted alkaline phosphatase was dissolved in 100 mL of endotoxin-free water, warmed to 37° C. for 30 minutes and then filtered using a 0.2 μm membrane.
(§4) On day 1, 50 μL of each test compound dilution in duplicates or a vehicle control was added to each well of a 96-well plate followed by addition of 150 μL of HEK-Blue hTLR2 cell suspension (1×10^5 cells/well) and incubated at 37° C./5% CO2 for 2 h. Next, 50 μL of an approximate 3×EC50 concentration of each agonist (Pam2CSK4 or Pam3CSK4) was added to the wells containing test compounds or the vehicle control. The plates were then incubated at 37° C./5% CO2 for 18 h. For each assay run, non-treated HEK-Blue hTLR2 cells were treated with serial dilutions of agonists to determine EC50 values for the respective run.
(§5) On day 2, secreted alkaline phosphatase (SEAP) activity was detected in cell culture supernatants. In brief, 20 μL was collected from each well and transferred to a 96-well plate. Next, 200 μL of Quanti-Blue detection reagent was added to each well. Plates were incubated at room temperature for 15 min and SEAP activity was assessed by spectrophotometer OD reading at 655 nm. […] IC50 values were calculated based on 8-point dilutions for each compound.

human TLR9 = human TLR9 (Homo sapiens (Human), UniProt Q9NR96); assay: HEK-Blue hTLR9 antagonism assay (SEAP reporter), agonist ODN 2006; details: HEK-Blue hTLR9 cells; ODN 2006 (TLR9 agonist) at approx. 3×EC50; 18 h; exact values 8-point, approximate (~ or <) 4-point dilutions; read-out: IC50 (μM) with ODN2006
human TLR9, sequence (Q9NR96 26-1032): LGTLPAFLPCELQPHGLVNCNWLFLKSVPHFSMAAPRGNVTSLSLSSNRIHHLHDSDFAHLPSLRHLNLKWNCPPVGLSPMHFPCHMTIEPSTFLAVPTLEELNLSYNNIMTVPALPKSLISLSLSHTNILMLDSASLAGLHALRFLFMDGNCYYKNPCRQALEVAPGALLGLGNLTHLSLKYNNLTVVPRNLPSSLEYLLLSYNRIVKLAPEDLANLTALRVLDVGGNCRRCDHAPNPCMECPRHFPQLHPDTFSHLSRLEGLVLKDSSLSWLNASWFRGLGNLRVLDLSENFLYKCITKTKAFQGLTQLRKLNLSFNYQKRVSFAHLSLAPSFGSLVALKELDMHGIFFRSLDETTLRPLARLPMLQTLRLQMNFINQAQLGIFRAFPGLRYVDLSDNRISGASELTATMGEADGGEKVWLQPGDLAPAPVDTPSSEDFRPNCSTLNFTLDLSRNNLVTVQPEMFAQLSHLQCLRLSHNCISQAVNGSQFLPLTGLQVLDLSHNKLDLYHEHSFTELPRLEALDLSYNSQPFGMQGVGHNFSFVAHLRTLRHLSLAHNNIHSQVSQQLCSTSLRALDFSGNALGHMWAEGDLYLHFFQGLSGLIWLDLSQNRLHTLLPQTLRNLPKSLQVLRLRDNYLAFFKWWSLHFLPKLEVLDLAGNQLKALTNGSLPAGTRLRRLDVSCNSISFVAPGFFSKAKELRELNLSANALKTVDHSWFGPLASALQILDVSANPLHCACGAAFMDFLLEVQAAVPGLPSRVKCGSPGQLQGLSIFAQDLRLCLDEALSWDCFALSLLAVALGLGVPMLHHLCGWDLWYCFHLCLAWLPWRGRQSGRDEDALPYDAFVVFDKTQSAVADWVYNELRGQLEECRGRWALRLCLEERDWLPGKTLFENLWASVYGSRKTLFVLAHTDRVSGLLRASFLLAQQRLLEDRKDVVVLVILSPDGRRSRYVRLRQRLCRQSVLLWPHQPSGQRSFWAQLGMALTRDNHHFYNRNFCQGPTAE
Procedure: Synthetic ODNs (ODN 2006 (ODN 7909), class B CpG oligonucleotide, TLR9 agonist) was obtained from InvivoGen and was dissolved in endotoxin-free water to a concentration 500 μM, vortexed until complete solubilization, and stored in aliquots at −20° C. Prior to addition to cells, an aliquot of the dissolved ligand was vortexed shortly and then was diluted in medium to 50 μM.
as §2
as §3, with “hTLR9” for “hTLR2”, “TLR9” for “TLR2”, “hTLR9 cells” for “hTLR2 reporters”, “antibiotics, 10 μg/mL Blasticidin (InvivoGen), and 100 μg/mL Zeocin” for “antibiotic, lx HEK-Blue Selection”
as §4, with “hTLR9” for “hTLR2”, “TLR9 agonist, ODN 2006,” for “each agonist (Pam2CSK4 or Pam3CSK4)”, “vehicle-treated” for “non-treated”, “agonist” for “agonists”
On day 2, secreted alkaline phosphatase (SEAP) activity was detected in cell culture supernatants. In brief, 30 μL was collected from each well and transferred to a 96-well plate. Next, 200 μL of Quanti-Blue detection reagent was added to each well. Plates were incubated at 37° C. for 60 min. and SEAP activity was assessed by spectrophotometer OD reading at 655 nm. […] Exact IC50 values were calculated based on 8-point dilutions for each compound. Approximate IC50 values (˜ or <) were calculated based on 4-point dilutions for each compound.

human TLR2 [2] = target: T1, human TLR2; assay: HEK-Blue hTLR2 antagonism assay (SEAP reporter), agonist Pam2CSK4; details: HEK-Blue hTLR2 cells; Pam2CSK4 (TLR2/6 agonist) at approx. 3×EC50; 18 h; 8-point dilutions
Procedure: as §1, §2, §3, §4, §5

For CN1CCN(/N=C/c2cc(C(=O)N3CCC(c4ccc(N5CCCC5)cc4)CC3)cc(F)c2O)CC1 [Compound 163, (3-fluoro-4-hydroxy-5-(((4-methylpiperazin-1-yl)imino)methyl)phenyl)(4-(4-(pyrrolidin-1-yl)phenyl)piperidin-1-yl)methanone], the IC50 (human TLR2 [1]) was 0.4 µM, the IC50 (human TLR9) was 0.26 µM and the IC50 (human TLR2 [2]) was 0.6 µM.

In the case of O=Cc1cc(NC(=O)c2ncc(-c3ccccc3)s2)cc(F)c1O [Compound 10, N-(3-fluoro-5-formyl-4-hydroxyphenyl)-5-phenylthiazole-2-carboxamide], the IC50 (human TLR2 [1]) is reported as 0.9 µM, the IC50 (human TLR9) is reported as about 1 µM and the IC50 (human TLR2 [2]) is reported as 1.6 µM.

With O=Cc1cc(C(=O)Nc2cnc(N3CCCCC3)s2)cc(F)c1O [Compound 7, 3-fluoro-5-formyl-4-hydroxy-N-(2-(piperidin-1-yl)thiazol-5-yl)benzamide] the IC50 (human TLR2 [1]) was over 100 µM, the IC50 (human TLR9) was over 33 µM and the IC50 (human TLR2 [2]) was over 100 µM.

O=Cc1cc(C(=O)Nc2nc(-c3ccc(N4CCCC4)cc3)ns2)cc(F)c1O [Compound 167, 3-fluoro-5-formyl-4-hydroxy-N-(3-(4-(pyrrolidin-1-yl)phenyl)-1,2,4-thiadiazol-5-yl)benzamide] was tested, and the IC50 (human TLR2 [1]) was 0.6 µM, the IC50 (human TLR9) was 0.5 µM and the IC50 (human TLR2 [2]) was 1.5 µM.

O=Cc1cc(C(=O)Nc2cnc(N3CCCC3)c(C(F)(F)F)c2)cc(F)c1O [Compound 19, 3-fluoro-5-formyl-4-hydroxy-N-(6-(pyrrolidin-1-yl)-5-(trifluoromethyl)pyridin-3-yl)benzamide] was tested, and the IC50 (human TLR2 [1]) was 0.3 µM, the IC50 (human TLR9) was 0.6 µM and the IC50 (human TLR2 [2]) was 0.4 µM.

Molecule O=Cc1cc(C(=O)Nc2ncc(-c3ccccc3)s2)cc(F)c1O [Compound 4, 3-fluoro-5-formyl-4-hydroxy-N-(5-phenylthiazol-2-yl)benzamide] has an IC50 (human TLR2 [1]) of 0.5 µM, an IC50 (human TLR9) of 0.2 µM and an IC50 (human TLR2 [2]) of 0.9 µM.

Oc1c(F)cc(-c2nc(-c3ccc(N4CCCC4)cc3)ns2)cc1/C=N/N1CCOCC1 [Compound 166, 2-fluoro-6-((morpholinoimino)methyl)-4-(3-(4-(pyrrolidin-1-yl)phenyl)-1,2,4-thiadiazol-5-yl)phenol] was tested, and the IC50 (human TLR2 [1]) was 1 µM, the IC50 (human TLR9) was 0.14 µM and 0.18 µM and the IC50 (human TLR2 [2]) was 2.8 µM.

O=Cc1cc(C(=O)Nc2nnc(-c3ccccc3)s2)cc(F)c1O [Compound 2, 3-fluoro-5-formyl-4-hydroxy-N-(5-phenyl-1,3,4-thiadiazol-2-yl)benzamide] gave an IC50 (human TLR2 [1]) of 2.2 µM, an IC50 (human TLR9) of about 0.5 µM and an IC50 (human TLR2 [2]) of 6.7 µM.

O=Cc1cc(-c2cnn(-c3ccc(C(F)(F)F)cc3)c2)cc(F)c1O [Compound 127, 3-fluoro-2-hydroxy-5-(1-(4-(trifluoromethyl)phenyl)-1H-pyrazol-4-yl)benzaldehyde] showed an IC50 (human TLR2 [1]) of 0.5 µM, an IC50 (human TLR9) of 0.1 µM and an IC50 (human TLR2 [2]) of 0.5 µM.

O=Cc1cc(C(=O)Nc2ncc(-c3cccc(N4CCCC4)c3)s2)cc(F)c1O [Compound 12, 3-fluoro-5-formyl-4-hydroxy-N-(5-(3-(pyrrolidin-1-yl)phenyl)thiazol-2-yl)benzamide] showed an IC50 (human TLR2 [1]) of 0.6 µM, an IC50 (human TLR9) of 0.2 µM and an IC50 (human TLR2 [2]) of 0.6 µM.
